Data from patent US9701556B1, “Compositions, methods, and systems for reducing contamination” (priority 2004, dated 2017).
“And” between values parts separate entries of the source, which are not always exact repeats. Equal values may be shown once.

Legend:
[1] = cited from earlier work
[2] = system: heterotrophic bacteria; experiment: Disinfection of wastewater with chelated iron compounds, total heterotrophic bacteria counts; type: cell-based; details: for disinfection effect, in words: compared with hydrogen peroxide alone
Method: A 10 gallon sample of wastewater from the Massaponax Wastewater Plant was collected and allowed to sit undisturbed for thirty minutes. The clarified supernatant was then pored off of the top of the settled solids within the sample. The supernatant was then mixed and four samples were collected to determine untreated heterotrophic bacteria counts. […] were dissolved in distilled water at 0.4334M. Ferric chloride was added in amounts to achieve saturation of chelant sites on the respective chelants. […] Twenty individual liter samples of supernatant were then decanted from the well-mixed wastewater sample for testing. Four chelated iron products with peroxide were tested at two test concentrations and compared to samples receiving peroxide only and iron chelate only. […] Individual samples were dosed with the respective additives, mixed with a magnetic stir bar and allowed to react for 30 minutes. Samples were then decanted to sterile sample containers containing sodium thiosulfate to stop the oxidation process and preserve the sample. Samples were then placed in a refrigerator until all samples were finished. Samples were packaged in a standard cooler with ice packs and sent via overnite delivery to ProChem Labs in Lynchburg, Va. for analysis for total heterotrophic bacteria counts.

[3] = Treatment of sulfides in municipal wastewater with ferric chelants and ozone; details: 4 ppm ferric chelant where added; for sulfide remaining: ozone at ~13.4 ppm; for Overall total percentage of sulfide reduction: ozone
[4] = Comparative treatment of 2,4-D in water, GC analysis; details: after four hours
Method: A solution containing 1.5 L of distilled water, approximately 0.2 g of sodium bicarbonate, and a small amount of sodium salt of 2,4-D were prepared with magnetic stirring at room temperature in a 2.5 L flask. The dissolved sodium bicarbonate increased the alkalinity of the water somewhat, causing the water to mimic a natural water source. Two hundred fifty milliliters of this solution was distributed into three 500 mL Erlenmeyer flasks.
The flasks were then covered with parafilm and swirled to facilitate mixing of the solution.

[5] = Treatment of sulfides in municipal wastewater with ferric chelants and hydrogen peroxide; details: for sulfide reduction after 15 minutes: 2.5:1.0 peroxide to sulfide, 105.8 ppm hydrogen peroxide, 20 ppm chelant where added, peroxide alone averaged; for sulfide treatment after 15 minutes: 37.8 ppm hydrogen peroxide, 12 ppm chelant where added; for Sulfide Remaining, Dose 1 12 ppm Chelant / Sulfide Remaining, Dose 2 6 ppm Chelant: 37.8 ppm H2O2, start 25.4 ppm sulfide; for Sulfide Remaining, Dose 1 20 ppm Chelant / Sulfide Remaining, Dose 2 10 ppm Chelant: 105.8 ppm H2O2, start 42.3 ppm sulfide
Method: The pH was then raised to 7 using sodium hydroxide. Precipitation of iron oxides and/or hydroxides at this pH offered assurance of complete chelation of still soluble iron after 24 hours.
Total sulfides were tested for using Standard Methods 4500-S^2− D with a Hach Chemical Company (of Loveland, Colo.) DR 2000 Spectrophotometer and reagents from Hach specific for this particular test. To keep total sulfides within the range of the test, samples were diluted with distilled water prior to conducting the test as per Hach instructions.
Tests for total sulfide were conducted after 5, 15, and 30 minutes of contact time on each of the seven liter test jars.

[6] = system: Fecal Coliform; experiment: Disinfection of wastewater, fecal coliform count; type: cell-based; details: 50 microliters 35% H2O2 (with or without 50 microliters Fe-GLC), after twenty minutes, control 2200
From the text: The samples were divided equally into three clean 500 milliliter sample containers from the single sample taken. The first sample served as a control and was set aside. […] Each sample was capped and shaken briefly to mix the contents. After twenty minutes, sub-samples were taken from each vessel and pored into fecal coliform sample containers for analysis at the Hampton Roads Sanitary District lab.

[7] = Treatment of contaminated groundwater, BTEX SW 846 8260; details: 250 ml groundwater, 1 ml 35% hydrogen peroxide (with or without 1 ml Fe-GLC); untreated 27 ppb
[8] = as above; details: 250 ml groundwater, 1 ml 35% hydrogen peroxide (with or without 1 ml Fe-GLC); untreated 159 ppb; ND = non detectible
[9] = as above; details: 250 ml groundwater, 1 ml 35% hydrogen peroxide (with or without 1 ml Fe-GLC); untreated 34 ppb; ND = non detectible
[10] = as above; details: 250 ml groundwater, 1 ml 35% hydrogen peroxide (with or without 1 ml Fe-GLC); untreated 171 ppb; ND = non detectible
[11] = as above; details: 250 ml groundwater, 1 ml 35% hydrogen peroxide (with or without 1 ml Fe-GLC); untreated 56 ppb; ND = non detectible
[12] = 30 minutes, raw average 18,188 CFUs
[13] = Series One, contact time 5 minutes
[14] = Series One, contact time 15 minutes
[15] = Series One, contact time 30 minutes
[16] = Series Two, contact time 5 minutes
[17] = Series Two, contact time 15 minutes
[18] = Series Two, contact time 30 minutes
[19] = after 30 minutes, 1.5:1.0 ratio of peroxide to sulfide
[20] = after 30 minutes, 2.5:1.0 ratio of peroxide to sulfide

Compound: O=C([O-])[C@H](O)[C@@H](O)[C@H](O)[C@H](O)CO.[Na+] [Sodium gluconate]
- readily biodegradable ([1]; after 2 days): 98%
- solubility in water [1]: very soluble in water

Compound: ferric gluconate [Fe-GLC]
- Test 1 CFUs/ml, 19.8 ppm H2O2 6 ppm Fe-Chelant [2, 12]: 98 CFUs/ml
- Test 2 CFUs/ml, 39.6 ppm H2O2 12 ppm Fe-Chelant [2, 12]: 28 CFUs/ml
- Test 3 CFUs/ml, 12 ppm Fe-Chelant ([2]; chelant alone, no H2O2, 30 minutes, raw average 18,188 CFUs): 22,600 CFUs/ml
- disinfection effect, in words [2]: better than peroxide alone
- sulfide remaining ([3]; start 13.70, contact time 5 minutes): 3.40 ppm
- sulfide remaining ([3]; start 13.70, contact time 10 minutes): 2.80 ppm
- sulfide remaining ([3]; start 13.70, contact time 20 minutes): 1.40 ppm
- Overall total percentage of sulfide reduction [3]: 90%
- Overall total percentage of sulfide reduction ([3]; listed as Fe-Gluconate): 90%
- effect on 2,4-D, in words [4]: substantially reduced
- sulfide reduction after 15 minutes [5]: 86.8%
- sulfide treatment after 15 minutes [5]: 70%
- Sulfide Remaining, Dose 1 12 ppm Chelant [5, 13]: 14.2 ppm
- Sulfide Remaining, Dose 2 6 ppm Chelant [5, 13]: 15.9 ppm
- Sulfide Remaining, Dose 1 12 ppm Chelant [5, 14]: 7.3 ppm
- Sulfide Remaining, Dose 2 6 ppm Chelant [5, 14]: 11.5 ppm
- Sulfide Remaining, Dose 1 12 ppm Chelant [5, 15]: 4.3 ppm
- Sulfide Remaining, Dose 2 6 ppm Chelant [5, 15]: 7.4 ppm
- Sulfide Remaining, Dose 4 Chelant Only ([5]; Series One, no H2O2, start 25.4 ppm sulfide, contact time 30 minutes): 24.9 ppm
- Sulfide Remaining, Dose 4 Chelant Only ([5]; Series Two, 20 ppm chelant, no H2O2, start 42.3 ppm sulfide, contact time 30 minutes): 43.0 ppm
- Sulfide Remaining, Dose 1 20 ppm Chelant [5, 16]: 18.6 ppm
- Sulfide Remaining, Dose 2 10 ppm Chelant [5, 16]: 23.5 ppm
- Sulfide Remaining, Dose 1 20 ppm Chelant [5, 17]: 5.6 ppm
- Sulfide Remaining, Dose 2 10 ppm Chelant [5, 17]: 7.3 ppm
- Sulfide Remaining, Dose 1 20 ppm Chelant [5, 18]: 1.1 ppm
- Sulfide Remaining, Dose 2 10 ppm Chelant [5, 18]: 2.2 ppm
- Percentage of Sulfide Treated, Dose 1 12 ppm Chelant 37.8 ppm H2O2 [5, 19]: 83.1
- Percentage of Sulfide Treated, Dose 2 6 ppm Chelant 37.8 ppm H2O2 [5, 19]: 70.8
- Percentage of Sulfide Treated, Dose 1 20 ppm Chelant 105.8 ppm H2O2 [5, 20]: 97.4
- Percentage of Sulfide Treated, Dose 2 10 ppm Chelant 105.8 ppm H2O2 [5, 20]: 94.8
- sulfide treatment compared with hydrogen peroxide alone, in words ([5]; over 30 minutes of treatment): noticeably better
- Fecal Coliform [6]: no detectable CFUs

Compound: OO [H2O2 Only, hydrogen peroxide]
- disinfection effect, in words [2]: good disinfectant
- MtBE [7]: 15.7 ppb
- Xylenes [8]: 67.0 ppb
- Ethylbenzene [9]: 13.0 ppb
- Toluene [10]: 55.7 ppb
- Benzene [11]: 15.1 ppb
- 2,4-D concentration ([4]; 250 mL, 200 microliters 50% hydrogen peroxide (with or without 200 microliters Fe-GLC), untreated 130 ppb): 230 ppb
- effect on 2,4-D, in words [4]: had no affect
- sulfide reduction after 15 minutes [5]: 52%
- sulfide treatment after 15 minutes [5]: 42.9%
- Percentage of Sulfide Treated, Dose 3 38.7 ppm H2O2 Only [5, 19]: 55.5 and 59.0 and 46.5 and 56.3 and 57.0 and 54.7
- Percentage of Sulfide Treated, Dose 3 105.8 ppm H2O2 Only [5, 20]: 69.0 and 69.5 and 67.8 and 66.4 and 44.4 and 69.3 and 70.2
- Fecal Coliform [6]: 53 cfu/100 mL
- Fecal Coliform ([6]; listed as hydrogen peroxide): Fifty three
